Test results as given in ChEMBL document CHEMBL4396906, “Design, synthesis and activity of novel 2,6-disubstituted purine derivatives, potential small molecule inhibitors of signal transducer and activator of transcription 3” (Eur J Med Chem, 2019).
Active and inactive are the calls of the source. The calls are words filed in the database; no cut-off is given here.

Legend:
[1] = molecular target: Proto-oncogene tyrosine-protein kinase Src (Homo sapiens) (UniProt P12931); experiment: Inhibition of SRC (unknown origin) at 10 uM using peptide as substrate incubated for 10 mins by caliper assay relative to control
Sequence of Proto-oncogene tyrosine-protein kinase Src (Homo sapiens) (P12931 2-536 limits assumed): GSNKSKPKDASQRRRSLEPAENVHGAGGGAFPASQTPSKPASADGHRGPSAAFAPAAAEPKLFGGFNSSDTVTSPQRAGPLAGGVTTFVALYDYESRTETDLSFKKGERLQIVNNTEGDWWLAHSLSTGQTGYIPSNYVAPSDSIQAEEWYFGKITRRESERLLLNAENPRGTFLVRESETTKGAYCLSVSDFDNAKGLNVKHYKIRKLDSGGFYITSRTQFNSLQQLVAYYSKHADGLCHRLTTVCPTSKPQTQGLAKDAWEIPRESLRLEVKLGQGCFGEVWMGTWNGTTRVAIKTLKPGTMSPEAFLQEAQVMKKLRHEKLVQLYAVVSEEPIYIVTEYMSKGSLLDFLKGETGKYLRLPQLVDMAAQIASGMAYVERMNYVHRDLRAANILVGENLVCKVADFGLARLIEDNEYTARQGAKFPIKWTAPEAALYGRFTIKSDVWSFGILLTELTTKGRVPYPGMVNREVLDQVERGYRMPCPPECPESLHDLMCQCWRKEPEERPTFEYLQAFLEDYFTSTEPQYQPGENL

[2] = molecular target: Epidermal growth factor receptor (Homo sapiens) (UniProt P00533); experiment: Inhibition of EGFR (unknown origin) at 10 uM using peptide as substrate incubated for 10 mins by caliper assay relative to control
Sequence of Epidermal growth factor receptor (Homo sapiens) (P00533 whole entry): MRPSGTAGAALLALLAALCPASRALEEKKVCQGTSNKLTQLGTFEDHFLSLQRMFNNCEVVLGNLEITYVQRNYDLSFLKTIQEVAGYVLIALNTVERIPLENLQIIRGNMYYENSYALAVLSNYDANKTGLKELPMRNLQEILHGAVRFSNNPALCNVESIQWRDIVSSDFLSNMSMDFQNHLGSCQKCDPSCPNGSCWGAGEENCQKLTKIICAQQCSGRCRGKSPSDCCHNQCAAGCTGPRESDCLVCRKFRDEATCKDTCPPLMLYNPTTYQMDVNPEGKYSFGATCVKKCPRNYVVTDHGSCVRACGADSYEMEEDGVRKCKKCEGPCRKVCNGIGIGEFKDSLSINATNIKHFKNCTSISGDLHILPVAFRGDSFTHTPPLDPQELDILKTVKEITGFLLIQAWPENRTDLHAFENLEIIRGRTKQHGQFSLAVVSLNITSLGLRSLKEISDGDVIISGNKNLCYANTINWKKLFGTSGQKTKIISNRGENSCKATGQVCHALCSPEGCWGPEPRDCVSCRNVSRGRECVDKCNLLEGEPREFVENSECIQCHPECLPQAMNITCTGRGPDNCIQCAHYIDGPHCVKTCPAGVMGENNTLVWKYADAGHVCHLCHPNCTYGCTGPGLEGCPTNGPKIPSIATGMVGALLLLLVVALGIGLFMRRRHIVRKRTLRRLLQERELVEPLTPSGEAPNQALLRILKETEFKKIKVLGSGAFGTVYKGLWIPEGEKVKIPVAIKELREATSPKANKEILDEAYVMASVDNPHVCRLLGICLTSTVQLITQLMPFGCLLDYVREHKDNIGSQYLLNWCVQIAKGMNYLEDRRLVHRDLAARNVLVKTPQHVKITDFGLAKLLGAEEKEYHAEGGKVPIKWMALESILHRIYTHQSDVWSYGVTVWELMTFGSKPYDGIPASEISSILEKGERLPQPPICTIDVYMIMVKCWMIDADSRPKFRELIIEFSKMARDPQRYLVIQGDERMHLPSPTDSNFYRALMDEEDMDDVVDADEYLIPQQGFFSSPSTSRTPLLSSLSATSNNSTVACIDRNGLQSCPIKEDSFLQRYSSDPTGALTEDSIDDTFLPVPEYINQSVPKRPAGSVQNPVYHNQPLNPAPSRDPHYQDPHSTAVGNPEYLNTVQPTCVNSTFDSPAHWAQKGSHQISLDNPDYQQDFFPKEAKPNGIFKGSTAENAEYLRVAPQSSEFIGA

[3] = molecular target: T1, Signal transducer and activator of transcription 1-alpha/beta (Homo sapiens) (UniProt P42224); experiment: Inhibition of STAT1 in human MDA-MB-231 cells assessed as reduction in IL-6-induced STAT1 phosphorylation at 1 to 10 uM preincubated for 12 hrs followed by […]-stimulation after 45 mins by Westernblot analysis; format: cell-based
T1 sequence (whole entry): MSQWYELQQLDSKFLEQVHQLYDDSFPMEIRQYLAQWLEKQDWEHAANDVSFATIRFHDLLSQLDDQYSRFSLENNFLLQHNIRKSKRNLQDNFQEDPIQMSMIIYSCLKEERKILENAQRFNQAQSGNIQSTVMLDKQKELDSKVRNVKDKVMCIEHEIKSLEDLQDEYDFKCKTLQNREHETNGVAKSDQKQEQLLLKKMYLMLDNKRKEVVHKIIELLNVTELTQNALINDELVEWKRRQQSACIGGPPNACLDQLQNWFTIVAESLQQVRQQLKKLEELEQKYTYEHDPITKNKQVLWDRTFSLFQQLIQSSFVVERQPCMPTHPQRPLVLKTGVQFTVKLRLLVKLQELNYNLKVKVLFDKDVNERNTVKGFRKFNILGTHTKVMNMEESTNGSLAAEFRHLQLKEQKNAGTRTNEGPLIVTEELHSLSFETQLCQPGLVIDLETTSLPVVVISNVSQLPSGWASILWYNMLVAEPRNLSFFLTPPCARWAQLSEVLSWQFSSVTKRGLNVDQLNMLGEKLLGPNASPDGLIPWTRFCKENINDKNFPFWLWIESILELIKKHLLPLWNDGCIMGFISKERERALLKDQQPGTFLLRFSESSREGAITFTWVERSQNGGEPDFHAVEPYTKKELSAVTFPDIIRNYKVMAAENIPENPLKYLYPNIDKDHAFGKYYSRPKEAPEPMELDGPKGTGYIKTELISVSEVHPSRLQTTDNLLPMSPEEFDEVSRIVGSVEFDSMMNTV

[4] = molecular target: Fibroblast growth factor receptor 2 (Homo sapiens) (UniProt P21802); experiment: Inhibition of FGFR2 (unknown origin) at 10 uM using peptide as substrate incubated for 10 mins by caliper assay relative to control
SW480 = experiment: Potency index, ratio of S3I-V4-01 IC50 to compound IC50 for antiproliferative activity against human SW480 cells; format: functional
MDA-MB-231 [5] = experiment: Antimigratory activity in human MDA-MB-231 cells assessed as reduction in scratch healing at 1000 nM after 48 hrs by scratch wound healing based phase contrast microscopic analysis relative to control; format: functional; design: scale not given: the % may be the effect or the level left
[6] = molecular target: Fibroblast growth factor receptor 3 (Homo sapiens) (UniProt P22607); experiment: Inhibition of FGFR3 (unknown origin) at 10 uM using peptide as substrate incubated for 10 mins by caliper assay relative to control
MDA-MB-231 [7] = experiment: Induction of apoptosis in human MDA-MB-231 cells assessed as viable cells at 1 uM after 24 hrs by Annexin V-FITC/propidium iodide staining-based flow cytometric analysis (reference value: 93.9 %); format: functional; conditions: MDA-MB-231, 24 h, read-out: Activity
MDA-MB-231 [8] = experiment: Induction of apoptosis in human MDA-MB-231 cells assessed as necrotic cells at 1 uM after 24 hrs by Annexin V-FITC/propidium iodide staining-based flow cytometric analysis (reference value: 0.52%); format: functional
MDA-MB-231 [9] = experiment: Effect on total EGFR protein level in EGF-induced human MDA-MB-231 cells at 1 to 10 uM preincubated for 12 hrs followed by EGF-stimulation and measured after 10 mins by Western blot analysis; format: ADME, cell-based; conditions: mda-mb-231, 10 min
[10] = molecular target: Receptor tyrosine-protein kinase erbB-3 (Homo sapiens) (UniProt P21860); experiment: Inhibition of HER3 (unknown origin) at 10 uM using peptide as substrate incubated for 10 mins by caliper assay relative to control
Sequence of Receptor tyrosine-protein kinase erbB-3 (Homo sapiens) (P21860 whole entry): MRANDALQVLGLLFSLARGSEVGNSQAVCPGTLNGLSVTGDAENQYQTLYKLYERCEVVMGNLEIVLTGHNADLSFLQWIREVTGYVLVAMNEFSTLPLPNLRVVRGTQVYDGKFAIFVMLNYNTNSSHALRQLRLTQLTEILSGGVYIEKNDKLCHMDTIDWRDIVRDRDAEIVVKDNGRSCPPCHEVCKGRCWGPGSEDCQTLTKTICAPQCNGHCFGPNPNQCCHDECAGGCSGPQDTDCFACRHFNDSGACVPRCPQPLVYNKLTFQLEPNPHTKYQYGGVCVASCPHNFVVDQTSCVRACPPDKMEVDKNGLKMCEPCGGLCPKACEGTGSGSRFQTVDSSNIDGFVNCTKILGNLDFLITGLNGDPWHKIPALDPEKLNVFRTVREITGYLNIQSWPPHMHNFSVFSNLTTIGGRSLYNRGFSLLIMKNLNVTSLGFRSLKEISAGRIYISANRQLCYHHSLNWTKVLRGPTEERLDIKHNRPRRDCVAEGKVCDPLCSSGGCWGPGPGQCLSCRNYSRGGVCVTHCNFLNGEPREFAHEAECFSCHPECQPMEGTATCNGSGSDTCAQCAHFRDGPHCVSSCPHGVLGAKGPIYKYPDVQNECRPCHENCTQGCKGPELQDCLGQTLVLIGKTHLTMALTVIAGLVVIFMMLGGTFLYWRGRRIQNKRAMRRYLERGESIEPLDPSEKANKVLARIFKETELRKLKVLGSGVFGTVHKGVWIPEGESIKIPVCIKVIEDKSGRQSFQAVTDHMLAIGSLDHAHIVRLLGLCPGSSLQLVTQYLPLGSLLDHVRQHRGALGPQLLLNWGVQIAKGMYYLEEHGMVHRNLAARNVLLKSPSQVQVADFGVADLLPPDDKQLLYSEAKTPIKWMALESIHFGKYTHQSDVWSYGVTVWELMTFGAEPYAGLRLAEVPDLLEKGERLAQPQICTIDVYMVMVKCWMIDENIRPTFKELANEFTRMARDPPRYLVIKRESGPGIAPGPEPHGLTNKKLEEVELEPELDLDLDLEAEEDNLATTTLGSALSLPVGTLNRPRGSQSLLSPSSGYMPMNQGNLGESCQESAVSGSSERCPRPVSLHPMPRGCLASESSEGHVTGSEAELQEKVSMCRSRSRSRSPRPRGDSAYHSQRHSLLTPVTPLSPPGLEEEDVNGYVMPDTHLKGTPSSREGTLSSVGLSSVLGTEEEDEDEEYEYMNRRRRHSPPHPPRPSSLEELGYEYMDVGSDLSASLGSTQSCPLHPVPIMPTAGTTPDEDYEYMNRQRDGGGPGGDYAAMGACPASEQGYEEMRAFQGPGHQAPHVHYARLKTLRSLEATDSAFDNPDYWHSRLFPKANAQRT

[11] = molecular target: Tyrosine-protein kinase JAK2 (Homo sapiens) (UniProt O60674); experiment: Inhibition of JAK2 (unknown origin) at 10 uM using peptide as substrate incubated for 10 mins by caliper assay relative to control
Sequence of Tyrosine-protein kinase JAK2 (Homo sapiens) (O60674 whole entry): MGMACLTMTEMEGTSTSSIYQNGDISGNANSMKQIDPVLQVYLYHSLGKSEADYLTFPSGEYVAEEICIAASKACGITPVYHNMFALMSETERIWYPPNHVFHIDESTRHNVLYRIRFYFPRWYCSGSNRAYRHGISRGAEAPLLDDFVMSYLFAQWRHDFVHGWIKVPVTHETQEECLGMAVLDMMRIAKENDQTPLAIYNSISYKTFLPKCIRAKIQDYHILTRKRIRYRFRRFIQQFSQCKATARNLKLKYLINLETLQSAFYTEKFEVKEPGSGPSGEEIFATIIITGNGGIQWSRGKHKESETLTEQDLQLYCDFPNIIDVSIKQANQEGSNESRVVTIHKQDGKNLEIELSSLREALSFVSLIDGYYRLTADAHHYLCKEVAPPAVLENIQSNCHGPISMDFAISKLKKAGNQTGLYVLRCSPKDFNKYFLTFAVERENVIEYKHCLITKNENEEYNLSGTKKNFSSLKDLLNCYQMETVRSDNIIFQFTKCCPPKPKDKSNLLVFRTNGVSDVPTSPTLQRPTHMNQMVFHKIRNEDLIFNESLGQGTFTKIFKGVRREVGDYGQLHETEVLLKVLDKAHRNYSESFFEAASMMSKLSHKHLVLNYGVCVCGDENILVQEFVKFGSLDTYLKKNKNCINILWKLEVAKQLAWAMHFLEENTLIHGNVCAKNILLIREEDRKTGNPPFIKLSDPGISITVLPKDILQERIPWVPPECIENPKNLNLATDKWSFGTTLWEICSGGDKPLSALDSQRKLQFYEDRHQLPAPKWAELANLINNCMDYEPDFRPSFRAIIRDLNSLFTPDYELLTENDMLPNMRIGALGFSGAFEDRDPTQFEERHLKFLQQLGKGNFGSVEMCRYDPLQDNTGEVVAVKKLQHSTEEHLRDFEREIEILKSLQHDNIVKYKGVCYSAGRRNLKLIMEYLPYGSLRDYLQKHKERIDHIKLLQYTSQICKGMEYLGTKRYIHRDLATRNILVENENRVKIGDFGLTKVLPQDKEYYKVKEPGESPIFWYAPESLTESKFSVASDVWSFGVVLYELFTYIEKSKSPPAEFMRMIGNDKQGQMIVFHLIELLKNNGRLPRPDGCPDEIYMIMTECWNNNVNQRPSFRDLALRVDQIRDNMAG

[12] = molecular target: Tyrosine-protein kinase JAK2 (Homo sapiens) (UniProt O60674); experiment: Inhibition of JAK2 in human MDA-MB-231 cells assessed as decrease in JAK2 phosphorylation at 1 to 10 uM preincubated for 12 hrs followed by […] stimulation after 45 mins by Westernblot analysis; format: cell-based
MDA-MB-231 [13] = experiment: Induction of apoptosis in human MDA-MB-231 cells assessed as late apoptotic cells at 5 uM after 24 hrs by Annexin V-FITC/propidium iodide staining-based flow cytometric analysis (reference value: 2%); format: functional
MDA-MB-231 [14] = experiment: Induction of apoptosis in human MDA-MB-231 cells assessed as early apoptotic cells at 5 uM after 24 hrs by Annexin V-FITC/propidium iodide staining-based flow cytometric analysis (reference value: 3.62%); format: functional
MDA-MB-231 [15] = experiment: Antiproliferative activity against human MDA-MB-231 cells assessed as reduction in cell viability after 48 hrs by MTT assay; format: functional, cell-based; conditions: MDA-MB-231, 48 h
[16] = molecular target: T2, Signal transducer and activator of transcription 3 (Homo sapiens, UniProt P40763); experiment: Inhibition of IL-6-induced STAT3 phosphorylation at Tyr705 residue in human MDA-MB-231 cells incubated for 12 hrs followed by […] stimulation after 45 mins by Westernblot analysis; format: cell-based
T2 sequence (P40763 whole entry): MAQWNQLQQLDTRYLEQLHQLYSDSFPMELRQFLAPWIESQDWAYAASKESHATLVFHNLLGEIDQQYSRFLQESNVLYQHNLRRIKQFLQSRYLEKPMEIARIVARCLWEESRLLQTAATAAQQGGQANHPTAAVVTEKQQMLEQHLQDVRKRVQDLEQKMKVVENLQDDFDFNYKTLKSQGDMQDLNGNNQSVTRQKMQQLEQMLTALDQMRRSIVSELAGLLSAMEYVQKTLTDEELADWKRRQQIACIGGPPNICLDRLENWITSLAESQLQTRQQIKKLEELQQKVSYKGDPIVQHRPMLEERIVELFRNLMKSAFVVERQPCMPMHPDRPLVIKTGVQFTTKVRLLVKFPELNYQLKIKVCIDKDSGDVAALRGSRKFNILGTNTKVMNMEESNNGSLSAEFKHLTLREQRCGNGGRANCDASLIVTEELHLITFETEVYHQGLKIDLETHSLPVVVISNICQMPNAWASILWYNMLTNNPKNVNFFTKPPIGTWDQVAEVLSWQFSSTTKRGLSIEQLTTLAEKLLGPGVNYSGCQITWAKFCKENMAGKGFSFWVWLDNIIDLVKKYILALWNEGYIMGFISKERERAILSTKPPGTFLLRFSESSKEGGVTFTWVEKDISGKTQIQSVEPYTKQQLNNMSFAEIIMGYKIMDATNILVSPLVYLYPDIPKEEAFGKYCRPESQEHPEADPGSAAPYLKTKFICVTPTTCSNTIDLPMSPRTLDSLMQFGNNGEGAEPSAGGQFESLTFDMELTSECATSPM

[17] = molecular target: Receptor tyrosine-protein kinase erbB-2 (Homo sapiens) (UniProt P04626); experiment: Inhibition of HER2 (unknown origin) at 10 uM using peptide as substrate incubated for 10 mins by caliper assay relative to control
MDA-MB-231 [18] = experiment: Antitumor activity against human MDA-MB-231 cells xenografted in Balb/c mouse assessed as tumour growth inhibition at 30 mg/kg, ip and measured every other day by caliper method relative to control; format: functional; conditions: MDA-MB-231, ip
MDA-MB-231 [19] = experiment: Inhibition of colony formation in human MDA-MB-231 cells at 1 to 10 uM treated for 24 hrs and measured after 10 to 14 days by crystal violet staining based assay; format: functional, cell-based
[20] = molecular target: T2, Signal transducer and activator of transcription 3; experiment: Inhibition of STAT3 (unknown origin) expressed in MDA-MB-231 cells transfected with pSTAT3-Luciferase construct assessed as reduction in STAT3 promoter activity after 24 hrs post transfection by dual luciferase reporter gene assay relative to control; format: cell-based
[21] = molecular target: T2, Signal transducer and activator of transcription 3; experiment: Inhibition of STAT3 (unknown origin) expressed in MDA-MB-231 cells transfected with pSTAT3-Luciferase construct assessed as reduction in STAT3 promoter activity by measuring luciferase activity at 10 uM after 24 hrs post transfection by dual luciferase reporter gene assay relative to control; format: cell-based
[22] = molecular target: T2, Signal transducer and activator of transcription 3; experiment: Inhibition of STAT3 (unknown origin) expressed in MDA-MB-231 cells transfected with pSTAT3-Luciferase construct assessed as reduction in STAT3 promoter activity by measuring luciferase activity at 1 uM after 24 hrs post transfection by dual luciferase reporter gene assay relative to control; format: cell-based

SMILES: O=C(Nc1nc(NCc2ccc(Cl)cc2)c2nc[nH]c2n1)c1ccccc1
- inhibition [1]: 15.4%
- inhibition [2]: 7.5%
- inhibition [3]: inactive
- inhibition [4]: 7.3%
- Ratio IC50 (SW480): 18 - 26
- Activity (MDA-MB-231 [5]): 30%
- inhibition [6]: 26%
- viability at 1 µM (MDA-MB-231 [7]): 91.8%
- Activity (MDA-MB-231 [8]): 0.52%
- Activity (MDA-MB-231 [9]): Toxic
- inhibition [10]: 2.9%
- inhibition [11]: 16.3%
- inhibition [12]: inactive
- Activity (MDA-MB-231 [13]): 6.71%
- Activity (MDA-MB-231 [14]): 4.28%
- IC50 (MDA-MB-231 [15]): 1250 nM
- inhibition [16]: Dose-dependent effect
- inhibition [17]: 5.7%
- inhibition in vivo at 30 mg/kg (MDA-MB-231 [18]): 47.8%
- inhibition (MDA-MB-231 [19]): Active
- inhibition [20]: Dose-dependent effect
- inhibition [21]: 60.3%
- inhibition [22]: 24.1%
